Data reported in PubChem BioAssay (NCI).
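Exposure lasted 48 hours, with cells grown in 96-well plates and compounds tested at five concentrations. The concentration for full growth arrest is given as TGI.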

Key:
Test in all cases: inhibition of tumour cell growth, NCI panel, 48 h
MDA-N = system: MDA-N
SF-295 CNS = system: SF-295 CNS
COLO 205 colon = system: COLO 205 colon
786-0 renal = system: 786-0 renal
A549 NSCLC = system: A549 NSCLC
M14 melanoma = system: M14 melanoma
SF-268 CNS = system: SF-268 CNS
SK-OV-3 ovarian = system: SK-OV-3 ovarian
TK-10 renal = system: TK-10 renal
NCI-H522 lung = system: NCI-H522 lung
RXF 393 renal = system: RXF 393 renal
MOLT-4 leukemia = system: MOLT-4 leukemia
NCI-H226 lung = system: NCI-H226 lung
UACC-62 melanoma = system: UACC-62 melanoma
HS 578T breast = system: HS 578T breast

`CCN(CC)C(=S)SNCc1ccc(S(N)(=O)=O)cc1` was tested, and the TGI (MDA-N) was 29 µM, the TGI (SF-295 CNS) was 34.9 µM and the TGI (COLO 205 colon) was 27.7 µM. For the same molecule, the TGI (786-0 renal) was 28 µM, the TGI (A549 NSCLC) was 26.3 µM and the TGI (M14 melanoma) was 25.1 µM. The TGI (SF-268 CNS) was 26.7 µM, the TGI (SK-OV-3 ovarian) was > 86 µM and the TGI (TK-10 renal) was > 66 µM. The TGI (NCI-H522 lung) was 22.2 µM, the TGI (RXF 393 renal) was 45.9 µM and the TGI (MOLT-4 leukemia) was > 62.2 µM. The TGI (NCI-H226 lung) was > 63.2 µM, the TGI (UACC-62 melanoma) was 83.1 µM and the TGI (HS 578T breast) was 50.4 µM.

With `CC(=O)NC1C(O)C(O)C(CO)OC1n1ncc(=O)[nH]c1=O` (stereo not drawn) the TGI (MDA-N) was > 100 µM, the TGI (SF-295 CNS) was > 100 µM and the TGI (COLO 205 colon) was > 100 µM. For the same molecule, the TGI (786-0 renal) was > 100 µM, the TGI (A549 NSCLC) was > 100 µM and the TGI (M14 melanoma) was > 100 µM. The TGI (SF-268 CNS) was > 100 µM, the TGI (SK-OV-3 ovarian) was > 100 µM and the TGI (TK-10 renal) was > 100 µM. The TGI (NCI-H522 lung) was > 100 µM, the TGI (RXF 393 renal) was > 100 µM and the TGI (MOLT-4 leukemia) was > 100 µM. The TGI (NCI-H226 lung) was > 100 µM, the TGI (UACC-62 melanoma) was > 100 µM and the TGI (HS 578T breast) was > 100 µM.

`CN(C)CCCCN1c2ccccc2Sc2cc(N=[N+]=[N-])ccc21` was tested, and the TGI (MDA-N) was 3.1 µM, the TGI (SF-295 CNS) was 4.05 µM and the TGI (COLO 205 colon) was 3.09 µM. For the same molecule, the TGI (786-0 renal) was 3.08 µM, the TGI (A549 NSCLC) was 3.37 µM and the TGI (M14 melanoma) was 3.08 µM. The TGI (SF-268 CNS) was 4.62 µM, the TGI (SK-OV-3 ovarian) was 5.1 µM and the TGI (TK-10 renal) was 4.86 µM. The TGI (NCI-H522 lung) was 3.05 µM, the TGI (RXF 393 renal) was 10.6 µM and the TGI (MOLT-4 leukemia) was 4.3 µM. For the same molecule, the TGI (NCI-H226 lung) was 7.9 µM, the TGI (UACC-62 melanoma) was 3.31 µM and the TGI (HS 578T breast) was 9.83 µM.

With `COc1c2ccccc2c(OC)c2nc(C)ccc12` the TGI (MDA-N) was > 100 µM, the TGI (SF-295 CNS) was > 100 µM and the TGI (COLO 205 colon) was > 96.7 µM. The TGI (786-0 renal) was > 100 µM, the TGI (A549 NSCLC) was > 100 µM and the TGI (M14 melanoma) was > 100 µM. The TGI (SF-268 CNS) was > 100 µM, the TGI (SK-OV-3 ovarian) was > 100 µM and the TGI (TK-10 renal) was > 100 µM. The TGI (NCI-H522 lung) was > 100 µM, the TGI (RXF 393 renal) was > 100 µM and the TGI (MOLT-4 leukemia) was 99.7 µM. For the same molecule, the TGI (NCI-H226 lung) was > 100 µM, the TGI (UACC-62 melanoma) was > 100 µM and the TGI (HS 578T breast) was > 100 µM.

For `O=[N+]([O-])c1ccc2[nH]ncc2c1Cl`, the TGI (MDA-N) was 48.1 µM, the TGI (SF-295 CNS) was > 100 µM and the TGI (COLO 205 colon) was 28.2 µM. For the same molecule, the TGI (786-0 renal) was > 100 µM, the TGI (A549 NSCLC) was > 100 µM and the TGI (SK-OV-3 ovarian) was > 100 µM. The TGI (TK-10 renal) was > 100 µM, the TGI (NCI-H522 lung) was 16.5 µM and the TGI (RXF 393 renal) was > 100 µM. The TGI (MOLT-4 leukemia) was 72.6 µM, the TGI (NCI-H226 lung) was > 100 µM and the TGI (UACC-62 melanoma) was > 100 µM. The TGI (HS 578T breast) was 59.3 µM.

`O=c1c2cccnc2cc(-c2ccccc2)n1CCO` was tested, and the TGI (MDA-N) was > 100 µM, the TGI (SF-295 CNS) was > 100 µM and the TGI (COLO 205 colon) was > 100 µM. For the same molecule, the TGI (786-0 renal) was > 100 µM, the TGI (A549 NSCLC) was > 100 µM and the TGI (M14 melanoma) was > 100 µM. For the same molecule, the TGI (SF-268 CNS) was > 100 µM, the TGI (SK-OV-3 ovarian) was > 100 µM and the TGI (TK-10 renal) was > 100 µM. The TGI (NCI-H522 lung) was > 100 µM, the TGI (RXF 393 renal) was > 100 µM and the TGI (MOLT-4 leukemia) was > 100 µM. For the same molecule, the TGI (NCI-H226 lung) was > 100 µM, the TGI (UACC-62 melanoma) was > 100 µM and the TGI (HS 578T breast) was > 100 µM.

With `CCCCCC(CO)C(O)(C(F)(F)F)C(F)(F)F` (stereo not drawn) the TGI (MDA-N) was > 10 µM, the TGI (SF-295 CNS) was > 10 µM and the TGI (COLO 205 colon) was > 10 µM. For the same molecule, the TGI (786-0 renal) was > 10 µM, the TGI (A549 NSCLC) was > 10 µM and the TGI (M14 melanoma) was > 10 µM. For the same molecule, the TGI (SF-268 CNS) was > 10 µM, the TGI (SK-OV-3 ovarian) was > 10 µM and the TGI (TK-10 renal) was > 10 µM. The TGI (NCI-H522 lung) was > 10 µM, the TGI (RXF 393 renal) was > 10 µM and the TGI (MOLT-4 leukemia) was > 10 µM. For the same molecule, the TGI (NCI-H226 lung) was > 10 µM, the TGI (UACC-62 melanoma) was > 10 µM and the TGI (HS 578T breast) was > 10 µM.

`CC(=O)OC1COC(n2c(-c3ccc(Cl)cc3)cc(-c3ccccc3)c(C#N)c2=S)C(OC(C)=O)C1OC(C)=O` (stereo not drawn) was tested, and the TGI (MDA-N) was > 100 µM, the TGI (SF-295 CNS) was 31.7 µM and the TGI (COLO 205 colon) was > 64.2 µM. For the same molecule, the TGI (786-0 renal) was 26.8 µM, the TGI (A549 NSCLC) was 30.6 µM and the TGI (M14 melanoma) was > 31.6 µM. For the same molecule, the TGI (SF-268 CNS) was > 39.3 µM, the TGI (SK-OV-3 ovarian) was > 78.7 µM and the TGI (TK-10 renal) was > 73.4 µM. For the same molecule, the TGI (NCI-H522 lung) was > 100 µM, the TGI (RXF 393 renal) was 26.9 µM and the TGI (MOLT-4 leukemia) was > 100 µM. For the same molecule, the TGI (NCI-H226 lung) was 32.3 µM, the TGI (UACC-62 melanoma) was > 31.6 µM and the TGI (HS 578T breast) was 24.6 µM.
